Activity calls are given as the source filed them. For most assays here, no stated cut-off is given here; in the data, actives have a measured Kd and inactives only a lower limit.
Tests used:
LIM domain kinase 2 = LIM domain kinase 2 (Homo sapiens, UniProt P53671)
dCTP pyrophosphatase 1 = molecular target: T1, dCTP pyrophosphatase 1 (Homo sapiens, UniProt Q9H773)
T1 sequence (Q9H773 whole entry): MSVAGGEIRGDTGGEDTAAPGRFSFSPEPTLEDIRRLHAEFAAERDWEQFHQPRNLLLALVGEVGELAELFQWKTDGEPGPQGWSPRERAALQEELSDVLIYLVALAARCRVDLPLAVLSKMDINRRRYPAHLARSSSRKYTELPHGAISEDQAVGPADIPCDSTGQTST

[1] = molecular target: T2, Serine/threonine-protein kinase TAO1 (Homo sapiens, UniProt Q7L7X3)
T2 sequence (Q7L7X3 whole entry): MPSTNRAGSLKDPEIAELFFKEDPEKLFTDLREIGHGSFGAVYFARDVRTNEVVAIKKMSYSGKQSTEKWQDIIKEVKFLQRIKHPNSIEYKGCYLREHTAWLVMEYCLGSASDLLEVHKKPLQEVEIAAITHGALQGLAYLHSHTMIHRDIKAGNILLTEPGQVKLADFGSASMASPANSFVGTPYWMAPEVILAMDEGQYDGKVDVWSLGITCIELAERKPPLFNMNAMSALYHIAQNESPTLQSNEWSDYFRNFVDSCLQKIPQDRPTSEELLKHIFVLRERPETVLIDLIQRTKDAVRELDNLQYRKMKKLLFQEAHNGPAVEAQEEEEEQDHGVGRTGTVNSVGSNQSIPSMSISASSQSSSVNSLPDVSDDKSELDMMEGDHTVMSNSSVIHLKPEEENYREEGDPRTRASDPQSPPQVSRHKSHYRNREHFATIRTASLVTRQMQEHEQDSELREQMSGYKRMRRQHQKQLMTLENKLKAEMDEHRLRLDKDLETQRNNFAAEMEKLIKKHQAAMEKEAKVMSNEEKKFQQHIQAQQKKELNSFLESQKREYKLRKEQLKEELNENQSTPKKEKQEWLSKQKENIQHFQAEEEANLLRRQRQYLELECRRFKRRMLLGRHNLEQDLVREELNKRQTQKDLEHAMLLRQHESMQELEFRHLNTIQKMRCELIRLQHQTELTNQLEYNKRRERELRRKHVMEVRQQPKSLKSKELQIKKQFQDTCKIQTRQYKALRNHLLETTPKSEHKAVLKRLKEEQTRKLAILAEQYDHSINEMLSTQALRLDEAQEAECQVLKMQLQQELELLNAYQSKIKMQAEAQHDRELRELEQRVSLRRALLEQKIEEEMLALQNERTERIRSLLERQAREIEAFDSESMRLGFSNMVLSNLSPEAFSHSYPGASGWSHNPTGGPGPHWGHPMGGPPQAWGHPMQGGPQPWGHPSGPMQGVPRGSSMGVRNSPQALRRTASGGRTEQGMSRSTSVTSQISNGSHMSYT

[2] = molecular target: Elongation factor Tu, mitochondrial (Homo sapiens, UniProt P49411)
[3] = molecular target: S-adenosylmethionine synthase isoform type-2 (Homo sapiens, UniProt P31153)
[4] = molecular target: Ribosomal protein S6 kinase alpha-6 (Homo sapiens, UniProt Q9UK32)
[5] = molecular target: T3, Serine/threonine-protein kinase D3 (Homo sapiens, UniProt O94806)
T3 sequence (O94806 whole entry): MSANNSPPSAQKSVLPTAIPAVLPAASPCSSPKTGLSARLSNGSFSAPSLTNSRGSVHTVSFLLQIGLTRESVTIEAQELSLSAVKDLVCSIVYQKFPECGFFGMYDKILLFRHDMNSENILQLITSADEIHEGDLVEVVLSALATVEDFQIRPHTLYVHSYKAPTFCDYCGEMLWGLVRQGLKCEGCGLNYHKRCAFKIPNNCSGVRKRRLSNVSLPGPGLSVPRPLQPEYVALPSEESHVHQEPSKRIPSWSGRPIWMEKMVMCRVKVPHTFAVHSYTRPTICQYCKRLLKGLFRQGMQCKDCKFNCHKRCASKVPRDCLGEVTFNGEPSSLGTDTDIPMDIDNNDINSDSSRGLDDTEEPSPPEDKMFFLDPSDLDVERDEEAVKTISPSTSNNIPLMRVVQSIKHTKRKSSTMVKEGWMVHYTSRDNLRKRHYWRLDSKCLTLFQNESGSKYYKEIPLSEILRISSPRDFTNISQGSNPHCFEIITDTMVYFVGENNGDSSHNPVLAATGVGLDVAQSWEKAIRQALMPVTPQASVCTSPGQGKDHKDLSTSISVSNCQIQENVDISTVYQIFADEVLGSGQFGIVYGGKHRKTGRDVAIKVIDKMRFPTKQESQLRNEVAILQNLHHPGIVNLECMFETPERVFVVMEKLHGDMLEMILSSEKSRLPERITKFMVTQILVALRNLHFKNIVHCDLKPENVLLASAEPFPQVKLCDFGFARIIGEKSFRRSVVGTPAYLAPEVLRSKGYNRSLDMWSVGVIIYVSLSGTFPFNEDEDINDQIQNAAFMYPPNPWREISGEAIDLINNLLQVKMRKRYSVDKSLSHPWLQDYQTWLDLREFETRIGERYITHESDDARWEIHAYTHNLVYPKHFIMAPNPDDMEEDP

[6] = molecular target: Calcium/calmodulin-dependent protein kinase type II subunit delta (Homo sapiens, UniProt Q13557)
[7] = molecular target: T4, Mitogen-activated protein kinase kinase kinase 3 (Homo sapiens, UniProt Q99759)
T4 sequence (Q99759 whole entry): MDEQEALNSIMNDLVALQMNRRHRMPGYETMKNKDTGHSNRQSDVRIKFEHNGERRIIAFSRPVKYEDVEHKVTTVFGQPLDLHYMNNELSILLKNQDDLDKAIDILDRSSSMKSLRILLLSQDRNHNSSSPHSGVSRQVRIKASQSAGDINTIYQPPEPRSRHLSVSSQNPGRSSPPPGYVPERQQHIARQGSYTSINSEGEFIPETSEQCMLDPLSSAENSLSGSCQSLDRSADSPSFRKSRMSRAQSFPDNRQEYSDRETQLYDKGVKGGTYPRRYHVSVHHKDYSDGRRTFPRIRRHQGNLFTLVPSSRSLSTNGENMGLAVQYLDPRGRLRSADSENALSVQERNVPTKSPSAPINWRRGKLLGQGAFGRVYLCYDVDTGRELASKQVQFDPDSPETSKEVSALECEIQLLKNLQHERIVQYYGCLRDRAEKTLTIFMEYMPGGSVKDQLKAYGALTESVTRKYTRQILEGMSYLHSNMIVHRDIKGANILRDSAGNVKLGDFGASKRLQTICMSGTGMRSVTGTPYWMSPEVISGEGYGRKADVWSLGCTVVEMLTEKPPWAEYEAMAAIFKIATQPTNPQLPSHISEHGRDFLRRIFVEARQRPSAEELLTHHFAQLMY

Chain of Ribosomal protein S6 kinase alpha-6 (Q9UK32 whole entry): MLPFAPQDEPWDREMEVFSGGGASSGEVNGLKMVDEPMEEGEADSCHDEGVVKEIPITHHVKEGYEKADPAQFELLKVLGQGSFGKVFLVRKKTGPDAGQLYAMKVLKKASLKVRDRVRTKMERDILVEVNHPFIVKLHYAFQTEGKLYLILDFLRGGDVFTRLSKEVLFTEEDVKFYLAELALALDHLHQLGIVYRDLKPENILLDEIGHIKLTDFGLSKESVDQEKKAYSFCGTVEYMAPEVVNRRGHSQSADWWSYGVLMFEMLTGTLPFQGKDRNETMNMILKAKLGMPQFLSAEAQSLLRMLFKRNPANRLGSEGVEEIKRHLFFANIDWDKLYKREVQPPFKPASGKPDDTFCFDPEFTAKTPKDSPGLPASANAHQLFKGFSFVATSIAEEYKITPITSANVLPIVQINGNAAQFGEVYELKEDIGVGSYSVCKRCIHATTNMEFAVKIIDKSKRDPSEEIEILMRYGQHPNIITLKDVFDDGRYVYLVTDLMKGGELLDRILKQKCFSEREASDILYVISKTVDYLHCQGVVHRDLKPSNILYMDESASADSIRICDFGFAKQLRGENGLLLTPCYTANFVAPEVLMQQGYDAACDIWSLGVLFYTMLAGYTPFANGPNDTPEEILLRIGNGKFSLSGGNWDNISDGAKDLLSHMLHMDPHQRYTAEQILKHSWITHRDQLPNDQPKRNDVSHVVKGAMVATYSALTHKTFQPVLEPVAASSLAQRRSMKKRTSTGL
Chain of Calcium/calmodulin-dependent protein kinase type II subunit delta (Q13557 whole entry): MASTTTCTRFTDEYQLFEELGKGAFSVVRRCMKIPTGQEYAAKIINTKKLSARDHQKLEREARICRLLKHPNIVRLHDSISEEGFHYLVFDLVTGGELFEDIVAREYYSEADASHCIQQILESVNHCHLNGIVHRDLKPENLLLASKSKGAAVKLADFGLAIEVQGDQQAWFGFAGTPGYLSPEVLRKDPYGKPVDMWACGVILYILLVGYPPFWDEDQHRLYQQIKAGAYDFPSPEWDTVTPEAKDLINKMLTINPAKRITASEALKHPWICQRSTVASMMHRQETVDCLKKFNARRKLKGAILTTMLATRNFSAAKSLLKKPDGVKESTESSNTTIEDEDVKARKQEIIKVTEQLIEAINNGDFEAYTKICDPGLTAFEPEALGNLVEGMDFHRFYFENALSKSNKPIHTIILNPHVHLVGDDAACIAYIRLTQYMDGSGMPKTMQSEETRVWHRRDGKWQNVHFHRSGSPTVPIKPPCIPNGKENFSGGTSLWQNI
Chain of S-adenosylmethionine synthase isoform type-2 (P31153 whole entry, canonical isoform): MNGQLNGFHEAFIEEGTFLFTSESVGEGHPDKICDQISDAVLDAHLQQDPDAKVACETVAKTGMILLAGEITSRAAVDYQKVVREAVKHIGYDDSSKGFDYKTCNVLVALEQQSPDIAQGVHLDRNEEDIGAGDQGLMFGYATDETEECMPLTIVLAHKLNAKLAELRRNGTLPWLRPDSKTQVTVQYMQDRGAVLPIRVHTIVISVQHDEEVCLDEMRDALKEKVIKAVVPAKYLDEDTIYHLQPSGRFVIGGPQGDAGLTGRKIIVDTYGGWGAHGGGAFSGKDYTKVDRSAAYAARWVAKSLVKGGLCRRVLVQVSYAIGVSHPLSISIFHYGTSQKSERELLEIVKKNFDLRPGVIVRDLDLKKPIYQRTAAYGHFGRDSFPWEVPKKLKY
Chain of LIM domain kinase 2 (P53671 whole entry, the tested form may be a part): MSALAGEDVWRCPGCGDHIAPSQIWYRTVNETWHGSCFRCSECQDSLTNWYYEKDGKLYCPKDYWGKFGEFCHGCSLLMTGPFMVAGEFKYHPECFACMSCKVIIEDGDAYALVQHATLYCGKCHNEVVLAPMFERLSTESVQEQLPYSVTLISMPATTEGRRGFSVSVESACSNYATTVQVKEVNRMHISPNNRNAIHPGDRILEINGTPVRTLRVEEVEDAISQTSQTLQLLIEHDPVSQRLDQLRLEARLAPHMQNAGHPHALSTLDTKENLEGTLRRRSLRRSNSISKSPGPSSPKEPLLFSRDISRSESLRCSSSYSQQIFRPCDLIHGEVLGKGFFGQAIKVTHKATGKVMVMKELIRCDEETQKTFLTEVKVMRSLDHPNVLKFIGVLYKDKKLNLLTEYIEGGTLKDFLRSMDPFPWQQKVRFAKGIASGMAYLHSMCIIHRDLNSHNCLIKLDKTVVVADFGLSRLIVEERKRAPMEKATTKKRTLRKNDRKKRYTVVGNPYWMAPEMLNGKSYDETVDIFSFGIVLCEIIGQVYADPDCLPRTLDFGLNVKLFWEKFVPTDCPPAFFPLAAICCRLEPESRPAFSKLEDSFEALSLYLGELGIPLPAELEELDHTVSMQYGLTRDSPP

Row | Structure (SMILES) | Kd (LIM domain kinase 2) | Kd (dCTP pyrophosphatase 1) | Kd [1] | Kd [2] | Kd [3] | Kd [4] | Kd [5] | Kd [6] | Kd [7]
1 | CO[C@H]1C[C@@H]2CC[C@@H](C)[C@@](O)(O2)C(=O)C(=O)N2CCCC[C@H]2C(=O)O[C@H]([C@H](C)C[C@@H]2CC[C@@H](O)[C@H](OC)C2)CC(=O)[C@H](C)/C=C(\C)[C@@H](O)[C@@H](OC)C(=O)[C@H](C)C[C@H](C)/C=C/C=C/C=C/1C [SIROLIMUS] | > 30 µM (inactive) | > 30 µM (inactive) | > 30 µM (inactive) | > 30 µM (inactive) | > 30 µM (inactive) | > 30 µM (inactive) | > 30 µM (inactive) | > 30 µM (inactive) | > 30 µM (inactive)
2 | CCS(=O)(=O)c1cccc(-c2cc(C(=O)NC3CCN(C)CC3)c(C)c3[nH]c4ncc(C)cc4c23)c1 [TAK-901] | > 30 µM (inactive) | > 30 µM (inactive) | > 30 µM (inactive) | > 30 µM (inactive) | > 30 µM (inactive) | 0.899 µM (active) | > 30 µM (inactive) | > 30 µM (inactive) | > 30 µM (inactive)
3 | CO[C@H]1C[C@@H]2CC[C@@H](C)[C@@](O)(O2)C(=O)C(=O)N2CCCC[C@H]2C(=O)O[C@H]([C@H](C)C[C@@H]2CC[C@@H](OC(=O)C(C)(CO)CO)[C@H](OC)C2)CC(=O)[C@H](C)/C=C(\C)[C@@H](O)[C@@H](OC)C(=O)[C@H](C)C[C@H](C)/C=C/C=C/C=C/1C [TEMSIROLIMUS] | > 30 µM (inactive) | > 30 µM (inactive) | > 30 µM (inactive) | > 30 µM (inactive) | > 30 µM (inactive) | > 30 µM (inactive) | > 30 µM (inactive) | > 30 µM (inactive) | > 30 µM (inactive)
4 | COc1cc2c(Nc3ccc(Cl)c(Cl)c3F)ncnc2cc1OC[C@@H]1C[C@@H]2CN(C)C[C@@H]2C1 [TESEVATINIB] | > 30 µM (inactive) | > 30 µM (inactive) | > 30 µM (inactive) | > 30 µM (inactive) | > 30 µM (inactive) | > 30 µM (inactive) | > 30 µM (inactive) | > 30 µM (inactive) | > 30 µM (inactive)
5 | O=C(Cc1ccc(-c2ccc(OCCN3CCOCC3)cc2)cn1)NCc1ccccc1 [TIRBANIBULIN] | > 30 µM (inactive) | > 30 µM (inactive) | > 30 µM (inactive) | > 30 µM (inactive) | > 30 µM (inactive) | > 30 µM (inactive) | > 30 µM (inactive) | > 30 µM (inactive) | > 30 µM (inactive)
6 | O=C1NC(=O)[C@@H](c2cn3c4c(cccc24)CCC3)[C@@H]1c1c[nH]c2ccccc12 [TIVANTINIB] | > 30 µM (inactive) | > 30 µM (inactive) | > 30 µM (inactive) | > 30 µM (inactive) | > 30 µM (inactive) | > 30 µM (inactive) | > 30 µM (inactive) | > 30 µM (inactive) | > 30 µM (inactive)
7 | C[C@@H](NC(=O)c1ncnc(N)c1Cl)c1ncc(C(=O)Nc2cc(C(F)(F)F)c(Cl)cn2)s1 [TOVORAFENIB] | > 30 µM (inactive) | > 30 µM (inactive) | > 30 µM (inactive) | > 30 µM (inactive) | > 30 µM (inactive) | > 30 µM (inactive) | > 30 µM (inactive) | > 30 µM (inactive) | > 30 µM (inactive)
8 | Cc1cc(Nc2ncnc3ccc(NC4=NC(C)(C)CO4)cc23)ccc1Oc1ccn2ncnc2c1 [TUCATINIB] | > 30 µM (inactive) | > 30 µM (inactive) | > 30 µM (inactive) | > 30 µM (inactive) | > 30 µM (inactive) | > 30 µM (inactive) | > 30 µM (inactive) | > 30 µM (inactive) | > 30 µM (inactive)
9 | Cn1ncc(Cl)c1-c1cc(C(=O)N[C@H](CN)Cc2ccc(F)c(F)c2)oc1Cl [UPROSERTIB] | > 30 µM (inactive) | > 30 µM (inactive) | > 30 µM (inactive) | > 30 µM (inactive) | > 30 µM (inactive) | > 30 µM (inactive) | 2.64 µM (active) | > 30 µM (inactive) | > 30 µM (inactive)
10 | CC(C)c1cc(CNc2nc(Nc3cc(C4CC4)[nH]n3)cc(N3CCN(C)CC3)n2)on1 [XL-228] | > 30 µM (inactive) | > 30 µM (inactive) | > 30 µM (inactive) | > 30 µM (inactive) | > 30 µM (inactive) | > 30 µM (inactive) | 1.86 µM (active) | > 30 µM (inactive) | > 30 µM (inactive)
11 | CN1C/C=C/CCOc2cccc(c2)-c2ccnc(n2)Nc2cccc(c2)C1 [ZOTIRACICLIB] | > 30 µM (inactive) | > 30 µM (inactive) | 2.14 µM | > 30 µM (inactive) | > 30 µM (inactive) | > 30 µM (inactive) | 0.557 µM (active) | > 30 µM (inactive) | > 30 µM (inactive)
